From ChEMBL document CHEMBL5226389, “Isolation of the Anti-Inflammatory Agent Myceliostatin from a Methionine-Enriched Culture of Myceliophthora thermophila ATCC 42464” (J Nat Prod, 2023)
Calls of active or inactive are those of the source. No cut-off for these calls is given here.

Tests used:
[1] = system: RAW264.7; experiment: Cytotoxicity against mouse RAW264.7 cells assessed as reduction in cell viability at 3 microg/ml incubated for 24 hrs by MTT assay; type: toxicity, cell-based; details: raw264.7, 24 h, dose 3 µg/ml
[2] = system: RAW264.7; experiment: Inhibition of LPS-induced NO production in mouse RAW264.7 cells at 0.3 to 3 microg/ml incubated for 24 hrs by griess reagent based microplate reader analysis; type: functional, cell-based; details: dose 0.3-3 µg/ml
[3] = system: RAW264.7; experiment: Antiinflammatory activity in mouse RAW264.7 cells assessed as inhibition of LPS-induced NFkB p65 activation at 3 to 10 microg/ml for 2 hrs followed by LPS stimulation for 2 hrs; type: functional, cell-based; details: dose 3-10 µg/ml, time 4.0 hrs
[4] = system: RAW264.7; experiment: Cytotoxicity against mouse RAW264.7 cells assessed as reduction in cell viability at 10 microg/ml incubated for 4 hrs by MTT assay; type: toxicity, cell-based; details: raw264.7, 4 h, dose 10 µg/ml
[5] = system: RAW264.7; experiment: Antiinflammatory activity in LPS-stimulated mouse RAW264.7 cells assessed as inhibition of IL-1beta level incubated for 24 hrs by RT-PCR analysis; type: functional, cell-based
[6] = system: RAW264.7; experiment: Inhibition of LPS-induced ROS production in mouse RAW264.7 cells at 3 to 10 microg/ml preincubated for 1 hr followed by LPS stimulation and measured after 24 hrs by DCFH-DA staining based fluorescence analysis; type: functional, cell-based; details: dose 3-10 µg/ml, time 25.0 hrs
[7] = system: RAW264.7; experiment: Antiinflammatory activity in LPS-stimulated mouse RAW264.7 cells assessed as inhibition of IL-6 level incubated for 24 hrs by RT-PCR analysis; type: functional, cell-based

SMILES | Activity [1] | inhibition [2] | Activity [3] | Activity [4] | Activity [5] | inhibition [6] | Activity [7]
C/C=C(\C)[C@H]1C(C)=C[C@@]2(C)C[C@@H](C)CC[C@@H]2[C@H]1C(=O)C1=C(SC)[C@](O)(CC(C)C)NC1=O | Non-Toxic | Active | – | – | – | – | –
C/C=C(\C)[C@H]1C(C)=C[C@@]2(C)C[C@@H](C)CC[C@@H]2[C@H]1C(=O)C1=C(SC)[C@@](O)(CC(C)C)NC1=O | Non-Toxic | Active | Active | Non-Toxic | Active | Active | Active
